Assay results: patent publication US20150274719A1, “AMINO-SUBSTITUTED IMIDAZO[1,2-A]PYRIDINECARBOXAMIDES AND THEIR USE” (BAYER PHARMA AKTIENGESELLSCHAFT, priority 2012, published 2015)
Where a name gives a salt, the structure may show the parent alone. Read-outs that look alike come from different tables or passages of the source.

Experiments:
[1] = Determination of pharmacokinetic parameters following intravenous and oral administration (rats); format: in vivo, male Wistar rats; conditions: intravenous administration in rats
Description: B-6. Determination of Pharmacokinetic Parameters Following Intravenous and Oral Administration
The pharmacokinetic parameters of the compounds according to the invention are determined in male CD-1 mice, male Wistar rats and female beagles. Intravenous administration in the case of mice and rats is carried out by means of a species-specific plasma/DMSO formulation, and in the case of dogs by means of a water/PEG400/ethanol formulation. In all species, oral administration of the dissolved substance is performed via gavage, based on a water/PEG400/ethanol formulation. The taking of blood from rats is simplified by inserting a silicone catheter into the right Vena jugularis externa prior to substance administration. The operation is carried out at least one day prior to the experiment with […] and administration of an analgesic (atropin/Rimadyl (3/1) 0.1 ml s.c.). The blood is taken (generally more than 10 time points) within a time window including terminal time points of at least 24 to a maximum of 72 hours after substance administration. When the blood is taken, it is passed into heparinised tubes. Then the blood plasma is obtained by centrifugation and is optionally stored at −20° C. until further processing.
An internal standard (which may also be a chemically unrelated substance) is added to the samples of the compounds according to the invention, calibration samples and qualifiers, and there follows protein precipitation by means of excess acetone. Addition of a buffer solution matched to the LC conditions, and subsequent vortexing, is followed by centrifugation at 1000 g. The supernatant is analysed by LC-MS/MS using C18 reversed-phase columns and variable mobile phase mixtures. The substances are quantified via the peak heights or areas from extracted ion chromatograms of specific selected ion monitoring experiments.
The plasma concentration/time plots determined are used to calculate the pharmacokinetic parameters such as AUC, Cmax, t1/2 (terminal half life), F (bioavailability), MRT (mean residence time) and CL (clearance), using a validated pharmacokinetic calculation program.
Since the substance quantification is carried out in plasma, it is necessary to determine the blood/plasma distribution of the substance in order to be able to adjust the pharmacokinetic parameters correspondingly. For this purpose, a defined amount of substance is incubated in heparinized whole blood of the species in question in a rocking roller mixture for 20 min. After centrifugation at 1000 g, the plasma concentration is measured (by means of LC-MS/MS; see above) and determined by calculating the ratio of the Cblood/Cplasma value.

[2] = target: T1, recombinant guanylate cyclase reporter cell line (Rattus norvegicus, UniProt P19686+P20595); test: Action on recombinant guanylate cyclase reporter cell line; format: cell-based; conditions: in some cases mean values from individual determinations
T1 construct: expressed in transfected cells; host or cells: recombinant reporter cell line
T1 sequence (P19686 1-690): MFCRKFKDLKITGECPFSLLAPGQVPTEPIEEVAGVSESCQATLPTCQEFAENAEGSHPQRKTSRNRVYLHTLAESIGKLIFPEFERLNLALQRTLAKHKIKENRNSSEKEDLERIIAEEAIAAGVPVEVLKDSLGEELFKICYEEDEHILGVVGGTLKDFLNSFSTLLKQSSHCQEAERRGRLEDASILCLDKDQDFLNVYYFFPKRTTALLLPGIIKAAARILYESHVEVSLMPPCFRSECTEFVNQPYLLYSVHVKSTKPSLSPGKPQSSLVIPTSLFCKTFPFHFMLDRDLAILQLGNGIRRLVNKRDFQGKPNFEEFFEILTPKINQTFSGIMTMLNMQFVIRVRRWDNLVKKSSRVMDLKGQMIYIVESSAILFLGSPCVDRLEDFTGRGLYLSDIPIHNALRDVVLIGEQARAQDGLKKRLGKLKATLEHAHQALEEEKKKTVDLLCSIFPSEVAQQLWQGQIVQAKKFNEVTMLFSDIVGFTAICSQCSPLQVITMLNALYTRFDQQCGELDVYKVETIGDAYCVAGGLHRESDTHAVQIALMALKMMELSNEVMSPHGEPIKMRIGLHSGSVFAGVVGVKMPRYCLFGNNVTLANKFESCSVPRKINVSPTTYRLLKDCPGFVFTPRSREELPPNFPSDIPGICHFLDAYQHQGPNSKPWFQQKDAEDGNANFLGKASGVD
T1 sequence (P20595 1-619): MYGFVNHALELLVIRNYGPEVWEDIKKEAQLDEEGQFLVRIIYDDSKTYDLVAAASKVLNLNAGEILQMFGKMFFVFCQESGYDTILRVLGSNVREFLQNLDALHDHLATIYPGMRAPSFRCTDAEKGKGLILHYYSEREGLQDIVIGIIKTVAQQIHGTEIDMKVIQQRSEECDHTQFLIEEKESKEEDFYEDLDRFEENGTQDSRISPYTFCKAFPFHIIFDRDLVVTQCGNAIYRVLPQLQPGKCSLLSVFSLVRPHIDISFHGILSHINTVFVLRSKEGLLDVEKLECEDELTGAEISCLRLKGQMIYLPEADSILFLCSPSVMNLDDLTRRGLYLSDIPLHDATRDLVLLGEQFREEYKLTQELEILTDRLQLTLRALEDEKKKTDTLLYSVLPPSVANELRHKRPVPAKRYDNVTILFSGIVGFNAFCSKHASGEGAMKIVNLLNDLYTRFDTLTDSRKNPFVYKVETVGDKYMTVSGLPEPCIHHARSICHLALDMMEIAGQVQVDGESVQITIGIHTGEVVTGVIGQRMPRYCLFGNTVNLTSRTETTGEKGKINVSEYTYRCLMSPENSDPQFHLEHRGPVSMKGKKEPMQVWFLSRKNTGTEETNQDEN
Outline: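 MEC values, meaning the lowest concentration producing a detectable response, were taken from a recombinant cyclase reporter cell assay. Where repeated, individual determinations were averaged.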

[3] = male, Wistar, rat, plasma, iv, read-out: MRT

Row | SMILES | AUCnorm [1] | CLblood [1] | half-life ([1]; male, Wistar, rat, plasma, iv) | MRT [1, 3] | MEC (minimal effective concentration) [2] | MRT [1] | t1/2 [1]
1 | Cc1nc2c(OCc3c(F)cccc3F)cc(C(F)F)cn2c1C(=O)NCC(C)(N)CF (single isomer, unassigned; enantiomer a) [Example 291, ent-N-(2-amino-3-fluoro-2-methylpropyl)-8-[(2,6-difluorobenzyl)oxy]-6-(difluoromethyl)-2-methylimidazo[1,2-a]pyridine-3-carboxamide (Enantiomer A)] | 0.87 kg·h/L | 14 mL/min/kg | 4.8 h | 5.7 h | 1.0 µM |  | 
2 | Cc1cc(OCc2c(F)ccc(F)c2F)c2nc(C)c(C(=O)NCC(C)(N)CF)n2c1 (single isomer, unassigned; enantiomer a) [Example 285, ent-N-(2-amino-3-fluoro-2-methylpropyl)-2,6-dimethyl-8-[(2,3,6-trifluorobenzyl)oxy]imidazo[1,2-a]pyridine-3-carboxamide (Enantiomer A)] | 0.54 kg·h/L | 17 mL/min/kg | 3.6 h | 4.4 h | 0.3 µM |  | 
3 | Cc1cc(OCc2c(F)cccc2F)c2nc(C)c(C(=O)NCC(C)(N)CCC(F)(F)F)n2c1 (single isomer, unassigned) [Example 409, ent-N-(2-amino-5,5,5-trifluoro-2-methylpentyl)-8-[(2,6-difluorobenzyl)oxy]-2,6-dimethylimidazo[1,2-a]pyridine-3-carboxamide] | 0.28 kg·h/L | 35.8 mL/min/kg |  |  | 0.03 µM | 7.4 h | 5.8 h
4 | Cc1cc(OCc2c(F)ccc(F)c2F)c2nc(C)c(C(=O)NCC(C)(C)N)n2c1 [Example 276, N-(2-Amino-2-methylpropyl)-2,6-dimethyl-8-[(2,3,6-trifluorobenzyl)oxy]imidazo[1,2-a]pyridine-3-carboxamide] | 0.70 kg·h/L | 21.2 mL/min/kg | 2.9 h | 4.5 h | 0.10 µM |  | 
5 | Cc1cc(OCc2c(F)cccc2F)c2nc(C)c(C(=O)NCC(C)(N)CF)n2c1 (racemic) [Example 282, rac-N-(2-amino-3-fluoro-2-methylpropyl)-8-[(2,6-difluorobenzyl)oxy]-2,6-dimethylimidazo[1,2-a]pyridine-3-carboxamide Formate] | 0.73 kg·h/L | 23.5 mL/min/kg | 4.5 h | 5.7 h | 0.3 µM |  | 
6 | Cc1cc(OCc2c(F)cccc2F)c2nc(C)c(C(=O)NCC(C)(N)CF)n2c1 (single isomer, unassigned; enantiomer b) [Example 284, ent-N-(2-amino-3-fluoro-2-methylpropyl)-8-[(2,6-difluorobenzyl)oxy]-2,6-dimethylimidazo[1,2-a]pyridine-3-carboxamide (Enantiomer B)] | 1.20 kg·h/L | 16.2 mL/min/kg |  |  | 0.1 µM | 5.3 h | 4.6 h
7 | CCC(C)(N)CNC(=O)c1c(C)nc2c(OCc3c(F)ccc(F)c3F)cc(C)cn12 (single isomer, unassigned; enantiomer a) [Example 274, ent-N-(2-Amino-2-methylbutyl)-2,6-dimethyl-8-[(2,3,6-trifluorobenzyl)oxy]imidazo[1,2-a]-pyridine-3-carboxamide (Enantiomer A)] | 1.29 kg·h/L | 11.5 mL/min/kg | 5.8 h | 8.4 h | 0.10 µM |  | 
8 | CCCC(C)(N)CNC(=O)c1c(C)nc2c(OCc3c(F)cccc3F)cc(C3CC3)cn12 (single isomer, unassigned; enantiomer b) [Example 281, ent-N-(2-amino-2-methylpentyl)-6-cyclopropyl-8-[(2,6-difluorobenzyl)oxy]-2-methylimidazo[1,2-a]pyridine-3-carboxamide (Enantiomer B)] | 0.28 kg·h/L | 39 mL/min/kg | 5.5 h | 6.9 h | 0.3 µM |  | 
9 | CCC(C)(N)CNC(=O)c1c(C)nc2c(OCc3c(F)ccc(F)c3F)cc(C)cn12 (single isomer, unassigned; enantiomer b) [Example 275, ent-N-(2-Amino-2-methylbutyl)-2,6-dimethyl-8-[(2,3,6-trifluorobenzyl)oxy]imidazo[1,2-a]-pyridine-3-carboxamide (Enantiomer B)] | 0.64 kg·h/L | 20.8 mL/min/kg |  |  | 0.10 µM | 7.2 h | 4.1 h
10 | Cc1cc(OCc2c(F)cccc2F)c2nc(C)c(C(=O)NCC(N)C(C)C)n2c1 (single isomer, unassigned) [Example 223, ent-N-(2-Amino-3-methylbutyl)-8-[(2,6-difluorobenzyl)oxy]-2,6-dimethylimidazo[1,2-a]pyridine-3-carboxamide] | 0.87 kg·h/L | 18.2 mL/min/kg | 4.8 h | 6.1 h | 0.30 µM |  | 
11 | Cc1cc(OCc2c(F)cccc2F)c2nc(C)c(C(=O)NCC(C)(N)CCC(F)(F)F)n2c1 (single isomer, unassigned) [Example 408, ent-N-(2-amino-5,5,5-trifluoro-2-methylpentyl)-8-[(2,6-difluorobenzyl)oxy]-2,6-dimethylimidazo[1,2-a]pyridine-3-carboxamide] | 0.19 kg·h/L | 51.2 mL/min/kg | 3.8 h | 4.7 h | 0.10 µM |  | 
12 | CCCC(C)(N)CNC(=O)c1c(C)nc2c(OCc3c(F)ccc(F)c3F)cc(C)cn12 (single isomer, unassigned) [Example 304, ent-N-(2-amino-2-methylpentyl)-2,6-dimethyl-8-[(2,3,6-trifluorobenzyl)oxy]imidazo[1,2-a]pyridine-3-carboxamide] | 0.34 kg·h/L | 37.8 mL/min/kg |  |  | 0.10 µM | 9.4 h | 6.2 h
